# Test results: patent publication US6465457B1 (priority 1991, dated 2002)
# Where two headings read alike, the source gives them in different places.
# Tests used:
# Type in all cases: in vivo
# Septoria nodorum (Wheat) = assay: Foliar fungal disease test on plants: Septoria nodorum (Wheat); details: one or two days before inoculation
# [1] = test system: Phytophthora infestans (Tomatoes); details: one or two days before inoculation
# [2] = test system: Plasmopara viticola (Vines); assay: Foliar fungal disease test on plants: Plasmopara viticola (Vines); details: one or two days before inoculation
# [3] = test system: Thanatephorus cucumeries (Rice); assay: Foliar fungal disease test on plants: Thanatephorus cucumeries (Rice); details: one or two days before inoculation
# [4] = test system: Erysiphe graminis tritici (Wheat); assay: Foliar fungal disease test on plants: Erysiphe graminis tritici (Wheat); details: plants inoculated 24 hours before treatment
# [5] = test system: Puccinia recondita (Wheat); assay: Foliar fungal disease test on plants: Puccinia recondita (Wheat)
# [6] = test system: Venturia inaequalis (Apples); assay: Foliar fungal disease test on plants: Venturia inaequalis (Apples); details: one or two days before inoculation
# [7] = test system: Pyricularia oryzae (Rice); details: one or two days before inoculation
# [8] = 100 ppm a.i. foliar spray or root drench (approx. 40 ppm in dry soil)
# [9] = 100 ppm a.i. foliar spray or root drench, plants inoculated with Puccinia recondita 48 hours before treatment
SMILES,"POCO (Percentage of Control) disease level, Septoria nodorum (Wheat) (Septoria nodorum (Wheat); [8])","POCO (Percentage of Control) disease level, Phytophthora infestans (Tomatoes) [1, 8]","POCO (Percentage of Control) disease level, Plasmopara viticola (Vines) [2, 8]","POCO (Percentage of Control) disease level, Thanatephorus cucumeries (Rice) [3, 8]","POCO (Percentage of Control) disease level, Erysiphe graminis tritici (Wheat) [4, 8]","POCO (Percentage of Control) disease level, Puccinia recondita (Wheat) [5, 9]","POCO (Percentage of Control) disease level, Venturia inaequalis (Apples) [6, 8]","POCO (Percentage of Control) disease level, Pyricularia oryzae (Rice) [7, 8]","POCO (Percentage of Control) disease level, Puccinia recondita (Wheat) ([5]; 100 ppm a.i. foliar spray or root drench (approx. 40 ppm in dry soil), one or two days before inoculation)","POCO (Percentage of Control) disease level, Septoria nodorum (Wheat) (Septoria nodorum (Wheat); 10 ppm foliar spray only)","POCO (Percentage of Control) disease level, Phytophthora infestans (Tomatoes) ([1]; 10 ppm foliar spray only)","POCO (Percentage of Control) disease level, Plasmopara viticola (Vines) ([2]; 10 ppm foliar spray only)","POCO (Percentage of Control) disease level, Thanatephorus cucumeries (Rice) ([3]; 10 ppm foliar spray only)","POCO (Percentage of Control) disease level, Erysiphe graminis tritici (Wheat) ([4]; 10 ppm foliar spray only)","POCO (Percentage of Control) disease level, Puccinia recondita (Wheat) ([5]; 10 ppm foliar spray only, one or two days before inoculation)","POCO (Percentage of Control) disease level, Venturia inaequalis (Apples) ([6]; 10 ppm foliar spray only)","POCO (Percentage of Control) disease level, Pyricularia oryzae (Rice) ([7]; 10 ppm foliar spray only)"
COC=C(C(=O)OC)c1ccccc1COC(=O)N(C)c1ccc(F)cc1 [13 (2)],0 (0 = 0% disease present),0 (0 = 0% disease present),0 (0 = 0% disease present),0 (0 = 0% disease present),0 (0 = 0% disease present),0+ (0 = 0% disease present),0 (0 = 0% disease present),0 (0 = 0% disease present),–,–,–,–,–,–,–,–,–
COC=C(C(=O)OC)c1ccccc1COC(=O)N(C)c1ccccc1C(F)(F)F [18 (2)],90 (90 and 94 = 60.1-100% disease present),90 (90 and 94 = 60.1-100% disease present),3 (3 = 1.1-3% disease present),60 (60 = 30.1-60% disease present),60 (60 = 30.1-60% disease present),90+ (90 and 94 = 60.1-100% disease present),3 (3 = 1.1-3% disease present),60 (60 = 30.1-60% disease present),–,–,–,–,–,–,–,–,–
COC=C(C(=O)OC)c1ccccc1COC(=O)N1CCCCC1 [2 (133)],90 (90 and 94 = 60.1-100% disease present),90 (90 and 94 = 60.1-100% disease present),5 (5 = 3.1-5% disease present),90 (90 and 94 = 60.1-100% disease present),60 (60 = 30.1-60% disease present),90+ (90 and 94 = 60.1-100% disease present),5 (5 = 3.1-5% disease present),20 (20 and 24 = 10.1-20% disease present),–,–,–,–,–,–,–,–,–
COC=C(C(=O)OC)c1ccccc1COC(=O)Nc1c(F)cccc1F [23 (1)],30 (30 = 20.1-30% disease present),90 (90 and 94 = 60.1-100% disease present),0 (0 = 0% disease present),0 (0 = 0% disease present),0 (0 = 0% disease present),30+ (30 = 20.1-30% disease present),0 (0 = 0% disease present),30 (30 = 20.1-30% disease present),–,–,–,–,–,–,–,–,–
COC=C(C(=O)OC)c1ccccc1COC(=O)N(C)c1cccc(C(F)(F)F)c1 [2 (2)],0 (0 = 0% disease present),90 (90 and 94 = 60.1-100% disease present),0 (0 = 0% disease present),30 (30 = 20.1-30% disease present),0 (0 = 0% disease present),–,0 (0 = 0% disease present),5 (5 = 3.1-5% disease present),0 (0 = 0% disease present),–,–,–,–,–,–,–,–
CCN(C(=O)OCc1ccccc1C(=COC)C(=O)OC)c1ccc(F)c(F)c1 [28 (3)],0 (0 = 0% disease present),20 (20 and 24 = 10.1-20% disease present),0 (0 = 0% disease present),0 (0 = 0% disease present),0 (0 = 0% disease present),0+ (0 = 0% disease present),0 (0 = 0% disease present),1 (1 = 0.1-1% disease present),–,–,–,–,–,–,–,–,–
COC=C(C(=O)OC)c1ccccc1COC(=S)Nc1cccc(F)c1 [8 (6)],–,–,–,–,–,–,–,–,–,90 (90 and 94 = 60.1-100% disease present),90 (90 and 94 = 60.1-100% disease present),60 (60 = 30.1-60% disease present),90 (90 and 94 = 60.1-100% disease present),90 (90 and 94 = 60.1-100% disease present),90 (90 and 94 = 60.1-100% disease present),60 (60 = 30.1-60% disease present),30 (30 = 20.1-30% disease present)
